Here are results for nine compounds from PubChem BioAssay (NCI).

Each structure is given as a SMILES string.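 Cells were grown in 96-well plates and exposed to each compound for 48 hours at five concentrations; endpoints were interpolated linearly between bracketing concentrations, or set to the highest concentration if not reached. GI50: concentration for 50% inhibition of growth. TGI is the concentration that stops growth completely.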 Where only a bound is given, the exact number is not on record here.

Among the test systems are CAKI-1 renal; CCRF-CEM leukemia; HCC-2998 colon; HCT-116 colon; HS 578T breast; MALME-3M melanoma; PC-3 prostate; RXF 393 renal; SF-268 CNS; SK-MEL-2 melanoma.
Common to all, as to assay: NCI anticancer screen, dose series, 48 h

`O=C1COCCN1c1ccc(NCc2cn(Cc3ccc(F)cc3)c3ccccc23)cc1`: the GI50 was 0.0252 µM in the assay with CAKI-1 renal; 5.4 µM in the assay with CCRF-CEM leukemia; 11.1 µM in the assay with HCC-2998 colon; 0.0618 µM in the assay with HCT-116 colon; 3.41 µM in the assay on HS 578T breast; 3.47 µM in the assay on MALME-3M melanoma. The GI50 in the assay with PC-3 prostate was 8.68 µM; in the assay with RXF 393 renal, 0.911 µM; in the assay with SF-268 CNS it was 9.7 µM; with SK-MEL-2 melanoma it was 0.779 µM. Besides, the TGI was 0.418 µM in the assay with CAKI-1 renal; > 96.4 µM with CCRF-CEM leukemia; 51.7 µM in the assay with HCC-2998 colon; 14 µM in the assay on HCT-116 colon; 44.1 µM in the assay with HS 578T breast; 15.4 µM in the assay with MALME-3M melanoma. Moreover, the TGI is 45.2 µM with PC-3 prostate, 5.76 µM in the assay with RXF 393 renal, 50.4 µM in the assay on SF-268 CNS and 6.06 µM in the assay on SK-MEL-2 melanoma.
Consider `NC(CSC(c1ccccc1)(c1ccccc1)c1ccc(Br)cc1)C(=O)O` (stereo not drawn), for which the GI50 in the assay on CAKI-1 renal was 0.499 µM; in the assay with CCRF-CEM leukemia, 0.0941 µM; with HCC-2998 colon it was 0.174 µM; in the assay on HCT-116 colon, 0.0469 µM; in the assay on HS 578T breast it was 0.0621 µM; in the assay with PC-3 prostate, 0.17 µM. Further, the results for the GI50 with RXF 393 renal, with SF-268 CNS and in the assay with SK-MEL-2 melanoma were 0.103 µM, 0.151 µM and 14.5 µM, respectively. The TGI is > 100 µM in the assay with CAKI-1 renal; 1.5 µM with HCC-2998 colon; 5.71 µM with HCT-116 colon; 0.219 µM with HS 578T breast; > 88.6 µM in the assay on MALME-3M melanoma; > 77.7 µM in the assay with PC-3 prostate. For the same compound, the TGI in the assay with RXF 393 renal was > 35.6 µM; with SF-268 CNS it was 22.4 µM; in the assay with SK-MEL-2 melanoma it was > 78.2 µM.
In the case of `O=P1(NCCCl)OCCC(OO)N1CCCl` (stereo not drawn), the TGI in the assay on CAKI-1 renal is 35.9 µM; with CCRF-CEM leukemia, > 52.7 µM; in the assay on HCC-2998 colon, > 100 µM; in the assay with HCT-116 colon it was 33.6 µM; in the assay on HS 578T breast, > 100 µM; in the assay with MALME-3M melanoma, 31.7 µM. The TGI in the assay with PC-3 prostate was > 100 µM; in the assay with RXF 393 renal, 32.4 µM; in the assay with SF-268 CNS it was > 100 µM; in the assay on SK-MEL-2 melanoma, > 100 µM.
With `O=c1c(Br)ccc(Br)cc1Br`, the GI50 was 1.7 µM in the assay on CAKI-1 renal; 0.317 µM with CCRF-CEM leukemia; 3.07 µM in the assay on HCC-2998 colon; 1.51 µM with HCT-116 colon; 3.44 µM in the assay on HS 578T breast; 1.85 µM in the assay on MALME-3M melanoma. Further, the GI50 was 1.85 µM in the assay on PC-3 prostate, 1.65 µM in the assay with RXF 393 renal, 2.62 µM in the assay with SF-268 CNS and 2.39 µM with SK-MEL-2 melanoma. The TGI in the assay with CAKI-1 renal was 3.32 µM; in the assay on CCRF-CEM leukemia, 1.58 µM; with HCC-2998 colon, 8.6 µM; with HCT-116 colon, 2.88 µM; in the assay on HS 578T breast, 23.1 µM; in the assay on MALME-3M melanoma it was 4.05 µM. In addition, the TGI in the assay on PC-3 prostate turned out to be 3.95 µM; with RXF 393 renal, 3.06 µM; with SF-268 CNS, 6.57 µM; in the assay on SK-MEL-2 melanoma, 5.85 µM.
Turning to `NC1=C(O)/C(=N/NS(=O)(=O)c2ccccc2)C(c2cccc(Cl)c2)O1` (stereo not drawn), the TGI was > 58.4 µM in the assay on CAKI-1 renal; 12 µM in the assay with CCRF-CEM leukemia; > 100 µM with HCC-2998 colon; 53.6 µM with HCT-116 colon; 95.1 µM in the assay on HS 578T breast; 54.8 µM with MALME-3M melanoma. Further, the TGI with PC-3 prostate was 54.2 µM; with RXF 393 renal, 29.6 µM; in the assay with SF-268 CNS, > 100 µM; with SK-MEL-2 melanoma it was 66 µM.
With `CC(NC(=O)C1(N)CCCC1)C(=O)O` (stereo not drawn), the TGI in the assay on CAKI-1 renal, in the assay with CCRF-CEM leukemia, with HCC-2998 colon, with HCT-116 colon, in the assay on HS 578T breast and in the assay with MALME-3M melanoma was > 100 µM each time. In addition, the TGI in the assay with PC-3 prostate, in the assay with RXF 393 renal, in the assay on SF-268 CNS and in the assay with SK-MEL-2 melanoma was > 100 µM each time.
Regarding `COc1cc(Cl)c(C)cc1NC(=O)c1cc2ccccc2cc1O`, the GI50 is 1.65 µM in the assay on CAKI-1 renal; 3.11 µM with CCRF-CEM leukemia; 3.31 µM in the assay with HCC-2998 colon; 1.95 µM with HCT-116 colon; 2.1 µM in the assay with HS 578T breast; 1.69 µM in the assay on MALME-3M melanoma. Also, the GI50 in the assay with PC-3 prostate is 2.33 µM; in the assay on RXF 393 renal, 2.84 µM; in the assay on SF-268 CNS, 3.24 µM; in the assay with SK-MEL-2 melanoma, 1.7 µM. In addition, the TGI in the assay on CAKI-1 renal came out at 10.6 µM; in the assay with CCRF-CEM leukemia, 19.6 µM; with HCC-2998 colon, 12.8 µM; in the assay on HCT-116 colon, 7.1 µM; with HS 578T breast, 7.35 µM; in the assay with MALME-3M melanoma, 10 µM. In addition, the TGI in the assay with PC-3 prostate was 10.7 µM; in the assay with RXF 393 renal, 7.01 µM; with SF-268 CNS, 14.3 µM; with SK-MEL-2 melanoma, 4.01 µM.
As to `Cc1cnc2n(c1=O)Cc1ccccc1CO2`, the GI50 was 16.9 µM in the assay on CAKI-1 renal; 2.35 µM in the assay on CCRF-CEM leukemia; 16 µM with HCC-2998 colon; 17.2 µM with HCT-116 colon; 23.9 µM with HS 578T breast; 19.8 µM in the assay on MALME-3M melanoma. Moreover, the GI50 in the assay with PC-3 prostate is 18.7 µM; with RXF 393 renal, 15.2 µM; in the assay on SF-268 CNS, 20.3 µM; with SK-MEL-2 melanoma, 0.568 µM. Besides, the TGI in the assay with CAKI-1 renal was 32.5 µM; with CCRF-CEM leukemia, 10.5 µM; in the assay with HCC-2998 colon it was 31.4 µM; in the assay on HCT-116 colon, 43.8 µM; with HS 578T breast it was > 100 µM; in the assay with MALME-3M melanoma it was 44.9 µM. Further, the TGI with PC-3 prostate amounted to 43.7 µM; with RXF 393 renal, 36.8 µM; in the assay on SF-268 CNS, 67.6 µM; in the assay on SK-MEL-2 melanoma, 2.04 µM.
As for `O=C(/C=C/c1ccco1)c1cccc(Nc2nc(Nc3ccccc3)nc(Nc3ccccc3)n2)c1`, the GI50 is 23.2 µM in the assay on CAKI-1 renal; 3.07 µM in the assay with CCRF-CEM leukemia; 25.7 µM with HCC-2998 colon; 2.47 µM in the assay with HCT-116 colon; 12.6 µM in the assay with HS 578T breast; > 66.7 µM in the assay with MALME-3M melanoma. Also, the GI50 with PC-3 prostate was 5.13 µM; in the assay with RXF 393 renal, 1.36 µM; in the assay with SF-268 CNS it was 28.7 µM; in the assay with SK-MEL-2 melanoma, 20.5 µM. Also, the TGI with CAKI-1 renal was > 100 µM; in the assay on CCRF-CEM leukemia, > 24.1 µM; in the assay on HCC-2998 colon, > 100 µM; in the assay on HCT-116 colon it was 35.3 µM; in the assay on HS 578T breast, > 82.7 µM; with MALME-3M melanoma, > 100 µM. The TGI is > 100 µM with PC-3 prostate, 8.15 µM with RXF 393 renal, > 100 µM in the assay on SF-268 CNS and > 100 µM in the assay with SK-MEL-2 melanoma.
